Assay results: patent publication US20260217712A1, “SOLID STATE FORMS OF MNK INHIBITORS” (4E Therapeutics, Inc., priority 2023, published 2026)

Experiments:
Format in all cases: physicochemical
LogD = assay: LogD
[1] = Thermodynamic solubility in simulated media and buffers; settings: listed as Structure (I) Pattern 3
[2] = Heating for 24 h in a vacuum tray dryer, XRPD and HPLC; settings: 75° C., reduced pressure
Procedure: A polymorphism study of Structure (I) was performed at 75° C., 100° C., 175° C., and 250° C. About 500 mg of Structure (I) Pattern 3 was heated at 75° C. for 24 h in a vacuum tray dryer (VTD) under reduced pressure. Obtained material after heating at 75° C. was analyzed for purity by HPLC and XPRD analysis. […] Additionally, about 500 mg of Structure (I) was heated at 75° C. for 24 h in a VTD under reduced pressure. After 24 h, material was cooled to 25-30° C. under inert atmosphere and analyzed for purity by HPLC and XRPD.
About 500 mg of Structure (I) was heated at 100° C. for 24 h in a VTD under reduced pressure. Obtained material after heating at 100° C. was analyzed for purity by HPLC and XPRD. […] Additionally, about 500 mg of Structure (I) was heated at 100° C. for 24 h in a VTD under reduced pressure. After 24 h material was cooled to 25-30° C. under inert atmosphere. Obtained material was analyzed for purity by HPLC and XPRD.
Obtained material after heating at 175° C. was analyzed for purity by HPLC and XPRD. […] After 24 h, material was cooled to 25-30° C. under inert atmosphere. Obtained material was analyzed for purity by HPLC and XPRD.
About 500 mg of Structure (I) was heated at 250° C. for 24 h in a VTD. Obtained material after heating at 250° C. was analyzed for purity by HPLC and XPRD.

[3] = Competitive slurries of Pattern 3 and Pattern 11, XRPD
In short: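 Turbula-mixed 1:1 Pattern 3/Pattern 11 solid (30 mg) slurried in dried solvent (20 vol) at fridge temperature, RT or 55 °C; XRPD after 7 days, mixtures re-checked after a further 10 days. Repeats at 5 °C and 55 °C used filtered THF/water (9:1) saturated with Structure (I); XRPD after 1 and 11 days.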

[4] = Static storage at 40° C./75% RH, XRPD and HPLC post storage; settings: for stability to storage at 40° C./75% RH (in words): 40° C./75% RH (elevated temperature and humidity); for HPLC purity post storage at 40° C./75% RH: 7 days
In short: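 Solids isolated as counter-ion salts of the compound were stored statically at 40° C./75% RH and then re-examined by XRPD for solid-form changes. Chemical purity after storage was checked on an Agilent HP1100/Infinity II 1260 series HPLC system fitted with a diode array detector and running OpenLAB software.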

Q: With `Cc1cc(Nc2cc(N)ncn2)c(=O)n2c1C(=O)NC21CCC2(CC2)CC1` [Pattern 3] as the molecule, how does the logD (LogD) read?
A: Its logD is 3.1.

Q: What about the “solubility in simulated fluids and buffers (in words)” value [1] of the same molecule?
A: The value was “poor”.

Q: What about the “HPLC purity change after heating at 75° C.” value [2] of the same molecule?
A: The value was “no change”.

Q: And the “XRPD form after heating at 75° C.” value [2]?
A: Its value is “remained as Pattern 3”.

Q: What about the “form conversion in competitive slurries (in words)” value [3] of the same molecule?
A: The value was “converted to Pattern 11”.

Q: What about the “stability to storage at 40° C./75% RH (in words)” value [4] of the same molecule?
A: The value was “good stability to storage”.

Q: And the “stability to storage at 40° C./75% RH (in words)” value ([4]; listed as Lot B)?
A: The value was “remained unchanged”.

Q: And the “HPLC purity post storage at 40° C./75% RH” value ([4]; 40° C./75% RH, listed as 9-5)?
A: The value was 98.5%.

Q: What about the “HPLC purity post storage at 40° C./75% RH” value ([4]; 40° C./75% RH, listed as Lot B Sample 1) of the same molecule?
A: Its value is 98.8%.

Q: What about the “change of chemical purity on storage at 40° C./75% RH (in words)” value ([4]; 40° C./75% RH, listed as 9-5) of the same molecule?
A: Its value is “small decrease in chemical purity”.
